Biological target: Nicotinic acetylcholine receptor (Rattus leucopus, UniProt Q62594)
Sequence (Q62594 whole entry): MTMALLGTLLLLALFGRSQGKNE

**Q.** With `CNC(=O)Oc1ccc2c(c1)[C@]1(C)CCN(C)C1N2C` (some centres undefined) as the compound, how does the Ki read?
**A.** > 10 µM

**Q.** `C=C(C=O)C[C@H]1C[C@H](O)[C@]2(C)O[C@@H]3C[C@@H]4O[C@@H]5C[C@]6(C)O[C@]7(C)CC[C@@H]8O[C@@H]9C[C@]%10(C)O[C@@H]%11C(C)=CC(=O)O[C@H]%11C[C@H]%10O[C@H]9C[C@@H](C)[C@H]8O[C@H]7C[C@H]6O[C@@]5(C)C/C=C\[C@H]4O[C@H]3C[C@H]2O1` was tested. Which Ki did it give?
**A.** 2 µM

**Q.** Which Ki does the source give for `CN1[C@@H]2CC[C@H]1CC(OC(=O)[C@H](CO)c1ccccc1)C2` (some centres undefined) [CAS_51-55-8] here?
**A.** > 10 µM

**Q.** How did the Ki turn out when `COc1cc2c3cc1Oc1cc(ccc1O)CC1c4c(cc(OC)c(O)c4Oc4ccc(cc4)CC3[N+](C)(C)CC2)CC[N+]1(C)C` (centres undefined) [CAS_8063-06-7] was run?
**A.** > 10 µM
